Our source for the EC50 and Ki values is patent US9561231B2 (AbbVie Inc., priority 2012, dated 2017).

In assay [1] the test system is breast cancer cell line MX-1. Description: MX-1 cell line proliferation assay (3-day). It is filed as cell-based. The following applies: Homo sapiens, MX1, MX-1 cells, Cell Titer Glo, read-out: Cellular proliferation: EC50. The procedure:
The impact of compounds of the Examples on cancer cell proliferation was determined using the breast cancer cell line MX-1 (ATCC) in a 3-day proliferation assay. MX-1 cells were maintained in RPMI supplemented with 10% FBS at 37° C. and an atmosphere of 5% CO2. For compound testing, MX-1 cells were plated in 96-well black bottom plates at a density of 5000 cells/well in 90 μL of culture media and incubated at 37° overnight to allow cell adhesion and spreading. Compound dilution series were prepared in DMSO via a 3-fold serial dilution from 3 mM to 0.1 μM. The DMSO dilution series were then diluted 1:100 in phosphate buffered saline, and 10 μL of the resulted solution were added to the appropriate wells of the MX-1 cell plate. The final compound concentrations in the wells were 3, 1, 0.3, 0.1, 0.03, 0.01, 0.003, 0.001, 0.0003 and 0.0001 μM.
Luminescence readings from the Cell Titer Glo assay were normalized to the DMSO treated cells and analyzed using the GraphPad Prism software with sigmoidal curve fitting to obtain EC50s.
Background: In ATP-based viability assays light output follows the ATP content of the culture.

Assay [2] deals with T1, second (BD2: amino acids E352-E168) bromodomain of BRD4 (Homo sapiens, UniProt O60885).
T1 construct: protocol
Description: TR-FRET bromodomain binding assay, BRD4 BD2. The note with it: Ki calculated from IC50, probe Kd and probe concentration, read-out: TR-FRET Binding Ki: BRD4 (BDII_E352-M457). The method, boiled down: (§1)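 Displacement of Alexa647-labeled BET-inhibitor probe from His-tagged bromodomain, TR-FRET read-out; buffer 20 mM Na phosphate pH 6.0, 50 mM NaCl, 0.01% Triton X-100. IC50 by 4PL fit; Ki calculated from IC50, probe Kd and probe concentration.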

The target in assay [3] is T2, first (BD1: amino acids K57-E168) bromodomain of BRD4 (Homo sapiens, UniProt O60885).
T2 construct: His-tagged first (BD1: amino acids K57-E168)
Put plainly: TR-FRET bromodomain binding assay, BRD4 BD1. The following applies: Ki calculated from IC50, probe Kd and probe concentration, read-out: TR-FRET Binding Ki: BRD4 (BDI_K57-E168). The method, boiled down: as §1

The mark [4] stands for this setting: TR-FRET assay protocol (D, E or G) per compound.
[5] abbreviates: TR-FRET assay protocol (A-G, compound concentration range).

As usually defined, the Ki is the dissociation constant of the complex between target and ligand, obtained from inhibition or displacement.

Where two headings read alike, the source gives them in different places.

With `CCOc1cc(=O)n(C)cc1-c1cc(NS(=O)(=O)CC)ccc1Oc1cc(F)c(F)c(F)c1` [Example 402, N-[3-(4-ethoxy-1-methyl-6-oxo-1,6-dihydropyridin-3-yl)-4-(3,4,5-trifluorophenoxy)phenyl]ethanesulfonamide], in assay [1] (72 hours with compound), the EC50 was found to be 55.2 nM. For the same compound, the inhibitory constant (Ki) in assay [2] (setting [4]) is 16.6 nM; in assay [3] (setting [4]), 32.3 nM.
In the case of `CN1CCN(Cc2ccc(-c3cc(=O)n(C)nc3-c3cc(NS(C)(=O)=O)ccc3Oc3ccccc3)cc2)CC1` [Example 62, N-[3-(1-methyl-4-{4-[(4-methylpiperazin-1-yl)methyl]phenyl}-6-oxo-1,6-dihydropyridazin-3-yl)-4-phenoxyphenyl]methanesulfonamide], in assay [1] (72 h incubation), the EC50 came out at 281 nM. Also, the Ki in assay [2] (setting [5]) was 5.13 nM; in assay [3] (setting [5]), 7.49 nM.
On to `CCS(=O)(=O)Nc1ccc(Oc2ccc(F)cc2F)c(-c2cn(C)c(=O)cc2OC(C)C)c1` [Example 289, N-{4-(2,4-difluorophenoxy)-3-[1-methyl-6-oxo-4-(propan-2-yloxy)-1,6-dihydropyridin-3-yl]phenyl}ethanesulfonamide], for which the EC50 in assay [1] (72 h incubation) was 77 nM. Moreover, the inhibitory constant (Ki) was 0.639 nM in assay [2] (setting [5]) and 6.31 nM in assay [3] (setting [5]).
Consider `CCS(=O)(=O)Nc1ccc(Oc2ccc(F)cc2F)c(-c2cn(C)c(=O)cc2OCCC(C)(C)O)c1` [Example 372, N-{4-(2,4-difluorophenoxy)-3-[4-(3-hydroxy-3-methylbutoxy)-1-methyl-6-oxo-1,6-dihydropyridin-3-yl]phenyl}ethanesulfonamide], for which, in assay [1] (72 h incubation), the EC50 was found to be 205 nM. Moreover, the Ki in assay [2] (setting [5]) was 14.3 nM; in assay [3] (setting [5]) it was 33.5 nM.
Turning to `CCOc1cc(=O)n(C)cc1-c1cc(C(C)(C)S(=O)(=O)CC)ccc1Oc1ccc(F)cc1F` [Example 380, 5-{2-(2,4-difluorophenoxy)-5-[2-(ethylsulfonyl)propan-2-yl]phenyl}-4-ethoxy-1-methylpyridin-2(1H)-one], the EC50 in assay [1] (72 hours with compound) stood at 38.4 nM. The figures for the Ki in assay [2] (setting [4]) and in assay [3] (setting [4]) were 3.88 nM and 14.3 nM, respectively.
In the case of `Cn1nc(-c2ccccc2Oc2ccccc2)c(-c2ccc(NS(C)(=O)=O)cc2)cc1=O` [Example 119, N-{4-[1-methyl-6-oxo-3-(2-phenoxyphenyl)-1,6-dihydropyridazin-4-yl]phenyl}methanesulfonamide], the EC50 in assay [1] (72 h incubation) worked out at 615 nM. The inhibitory constant (Ki) in assay [2] (setting [5]) is 63.6 nM; in assay [3] (setting [5]), 135 nM.
As for `CCS(=O)(=O)Nc1ccc(Oc2ccc(F)cc2F)c(-c2cn(C)c(=O)cc2-c2ccco2)c1` [Example 392, N-{4-(2,4-difluorophenoxy)-3-[4-(furan-2-yl)-1-methyl-6-oxo-1,6-dihydropyridin-3-yl]phenyl}ethanesulfonamide], in assay [1] (72 hours with compound), the EC50 was 69.2 nM. Moreover, the values for the Ki in assay [2] (setting [4]) and in assay [3] (setting [4]) were 4.29 nM and 22 nM, respectively.
As to `Cn1cc(-c2cc(=O)n(C)nc2-c2ccccc2Oc2ccccc2)cn1` [Example 103, 2-methyl-5-(1-methyl-1H-pyrazol-4-yl)-6-(2-phenoxyphenyl)pyridazin-3(2H)-one], the EC50 in assay [1] (72 h incubation) was over 3000 nM. Also, the Ki is 109 nM in assay [2] (setting [5]) and 253 nM in assay [3] (setting [5]).
With `Cn1cnc(S(=O)(=O)Nc2ccc(Oc3ccccc3)c(-c3ccc(=O)n(C)c3)c2)c1` [Example 227, 1-methyl-N-[3-(1-methyl-6-oxo-1,6-dihydropyridin-3-yl)-4-phenoxyphenyl]-1H-imidazole-4-sulfonamide], the EC50 in assay [1] (72 h incubation) was over 3000 nM. Further, the inhibition constant (Ki) is 420 nM in assay [2] (setting [5]) and 157 nM in assay [3] (setting [5]).
For the compound `CCN(CC)CC#CCOc1cc(=O)n(C)cc1-c1cc(NS(=O)(=O)CC)ccc1Oc1ccc(F)cc1F` [Example 328, N-[3-(4-{[4-(diethylamino)but-2-yn-1-yl]oxy}-1-methyl-6-oxo-1,6-dihydropyridin-3-yl)-4-(2,4-difluorophenoxy)phenyl]ethanesulfonamide], in assay [1] (72 h incubation), the EC50 was 72.7 nM. For the same compound, the Ki is 14.6 nM in assay [2] (setting [5]) and 7.1 nM in assay [3] (setting [5]).
For the compound `CCOc1cc(=O)n(C)cc1-c1cc(NS(=O)(=O)CC)ccc1Oc1ccc(F)c(F)c1` [Example 401, N-[4-(3,4-difluorophenoxy)-3-(4-ethoxy-1-methyl-6-oxo-1,6-dihydropyridin-3-yl)phenyl]ethanesulfonamide], the EC50 in assay [1] (72 hours with compound) was 25.1 nM. For the same compound, the inhibition constant (Ki) in assay [2] (setting [4]) was 4.99 nM; in assay [3] (setting [4]) it was 19.8 nM.
Take `Cn1cc(-c2cc(NS(C)(=O)=O)ccc2OCC2CCOCC2)ccc1=O` [Example 250, N-[3-(1-methyl-6-oxo-1,6-dihydropyridin-3-yl)-4-(tetrahydro-2H-pyran-4-ylmethoxy)phenyl]methanesulfonamide]: the EC50 in assay [1] (72 h incubation) is over 3000 nM. In addition, the results for the inhibition constant Ki in assay [2] (setting [5]) and in assay [3] (setting [5]) were 12500 nM and 143 nM, respectively.
`CCC(O)c1ccc(-c2cc(=O)n(C)nc2-c2ccccc2Oc2ccccc2)cc1` (stereo not drawn) [Example 75, 5-[4-(1-hydroxypropyl)phenyl]-2-methyl-6-(2-phenoxyphenyl)pyridazin-3(2H)-one]: the EC50 in assay [1] (72 h incubation) came to 1390 nM. For the same compound, the results for the inhibitory constant (Ki) in assay [2] (setting [5]) and in assay [3] (setting [5]) were 195 nM and 264 nM, respectively.
`Cn1cc(-c2cc(NS(C)(=O)=O)ccc2Oc2cccc(C#N)c2)ccc1=O` [Example 245, N-[4-(3-cyanophenoxy)-3-(1-methyl-6-oxo-1,6-dihydropyridin-3-yl)phenyl]methanesulfonamide]: the EC50 in assay [1] (72 h incubation) came out at 1010 nM. Moreover, the Ki in assay [2] (setting [5]) was 439 nM; in assay [3] (setting [5]) it was 78.6 nM.
In the case of `Cn1nc(-c2ccccc2Oc2ccccc2)c(-c2cc[nH]c(=O)c2)cc1=O` [Example 55, 2-methyl-5-(2-oxo-1,2-dihydropyridin-4-yl)-6-(2-phenoxyphenyl)pyridazin-3(2H)-one], the EC50 in assay [1] (72 h incubation) was found to be 13700 nM. Also, the Ki was 778 nM in assay [2] (setting [5]) and 6890 nM in assay [3] (setting [5]).
For `CCOc1cc(=O)n(C)cc1-c1cc(CS(=O)(=O)CC)ccc1Oc1ccc(F)cc1F` [Example 379, 5-{2-(2,4-difluorophenoxy)-5-[(ethylsulfonyl)methyl]phenyl}-4-ethoxy-1-methylpyridin-2(1H)-one], in assay [1] (72 hours with compound), the EC50 worked out at 126 nM. In addition, the inhibition constant Ki in assay [2] (setting [4]) was 16.1 nM; in assay [3] (setting [4]), 62.1 nM.
As for `CN1CCN(c2ccc(-c3cc(=O)n(C)nc3-c3ccccc3Oc3ccccc3)cc2)CC1` [Example 161, 2-methyl-5-[4-(4-methylpiperazin-1-yl)phenyl]-6-(2-phenoxyphenyl)pyridazin-3(2H)-one], in assay [1] (72 h incubation), the EC50 came out at 244 nM. The figures for the Ki in assay [2] (setting [5]) and in assay [3] (setting [5]) were 24.9 nM and 26.3 nM, respectively.
Taken in the same sequence, the figures for `Cc1cc(-c2cc(NS(C)(=O)=O)ccc2OC2CCC(F)(F)CC2)c[nH]c1=O` [Example 266, N-{4-[(4,4-difluorocyclohexyl)oxy]-3-(5-methyl-6-oxo-1,6-dihydropyridin-3-yl)phenyl}methanesulfonamide] were over 3000 nM, 341 nM and 58.3 nM.
With `COc1cc(=O)n(C)nc1-c1cc(N(C)S(C)(=O)=O)ccc1Oc1ccccc1` [Example 23, N-[3-(4-methoxy-1-methyl-6-oxo-1,6-dihydropyridazin-3-yl)-4-phenoxyphenyl]-N-methylmethanesulfonamide], in assay [1] (72 h incubation), the EC50 stood at 3800 nM. The Ki in assay [2] (setting [5]) was 214 nM; in assay [3] (setting [5]) it was 480 nM.
As to `Cn1nc(-c2ccccc2Oc2ccccc2)c(-c2ccc(C3=NCCCO3)cc2)cc1=O` [Example 95, 5-[4-(5,6-dihydro-4H-1,3-oxazin-2-yl)phenyl]-2-methyl-6-(2-phenoxyphenyl)pyridazin-3(2H)-one], the EC50 in assay [1] (72 h incubation) was over 3000 nM. The figures for the Ki in assay [2] (setting [5]) and in assay [3] (setting [5]) were 145 nM and 172 nM, respectively.
